For data set [1], the target named is T1, Hexokinase-4 (Homo sapiens, UniProt P35557).
T1 sequence (P35557 whole entry): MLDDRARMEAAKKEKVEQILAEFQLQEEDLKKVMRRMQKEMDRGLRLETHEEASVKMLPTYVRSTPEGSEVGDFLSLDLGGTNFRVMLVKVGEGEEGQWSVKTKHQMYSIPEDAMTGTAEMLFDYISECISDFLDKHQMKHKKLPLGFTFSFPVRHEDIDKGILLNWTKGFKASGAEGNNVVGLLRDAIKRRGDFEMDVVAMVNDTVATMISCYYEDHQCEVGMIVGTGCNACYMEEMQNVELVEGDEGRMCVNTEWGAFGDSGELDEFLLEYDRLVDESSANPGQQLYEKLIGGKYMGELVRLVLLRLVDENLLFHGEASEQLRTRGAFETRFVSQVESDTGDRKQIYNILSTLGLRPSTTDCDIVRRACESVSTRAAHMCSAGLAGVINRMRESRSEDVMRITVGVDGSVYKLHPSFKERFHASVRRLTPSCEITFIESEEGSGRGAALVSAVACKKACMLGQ

Data set [2] deals with T1, Hexokinase-4. The source holds these as a separate data set.
The next data set concerns Rattus norvegicus. As to the kind of experiment: Glucose lowering effect in po dosed Wistar rat assessed as decrease in plasma glucose level administered 30 mins before glucose challenge by OGTT. It counts as functional, organism-based.
A short description of data set [3]: Volume of distribution in Wistar rat at 1 mg/kg, iv and 3 mg/kg, po. It counts as ADME, organism-based. The note with it: in vivo.
Data set [4] in a line: Clearance in Wistar rat at 1 mg/kg, iv and 3 mg/kg, po. It is filed as ADME, organism-based. The note with it: in vivo.
The nature of data set [5]: Half life in Wistar rat at 1 mg/kg, iv. Particulars: in vivo. It counts as ADME, organism-based. The arrangement: dose 1 mg/kg, route intravenous.
The nature of data set [6]: Cmax in Wistar rat at 1 mg/kg, iv and 3 mg/kg, po. Particulars: in vivo. It is filed as ADME, organism-based.
The nature of data set [7]: Tmax in Wistar rat at 1 mg/kg, iv and 3 mg/kg, po. It is filed as ADME, organism-based. Particulars: in vivo.
A short description of data set [8]: Oral bioavailability in Wistar rat at 3 mg/kg. The note with it: in vivo. It is filed as ADME, organism-based.

The structures appear in SMILES notation.

As to `Cc1csc(NC(=O)c2cc(Sc3nncn3C)ccc2[N+](=O)[O-])n1`, the EC50 at Hexokinase-4 [1] and on Hexokinase-4 [2] was greater than 10 µM in each case.
On to `Cc1csc(NC(=O)c2cc(Sc3nncn3C)ccc2N)n1`, for which the Activity result in the data set on Rattus norvegicus is “Dose-dependent effect”. Further, the Vd in data set [3] turned out to be 0.4 L/kg. This compound also came in with a clearance in [4] of 0.858 L/h/kg. The half-life in data set [5] is 54 min. Also, in [6], the highest level (Cmax) was 8.5 µM. The time to peak (Tmax) in data set [7] is 30 min. The compound further had a bioavailability in [8] of 100%.
`Cn1cnnc1Sc1ccc(N)c(C(=O)Nc2ccccc2)c1`: the EC50 on Hexokinase-4 [1] and at Hexokinase-4 [2] was greater than 10 µM each time.
As for `Cn1cnnc1Sc1ccc(N)c(C(=O)Nc2nc(C(F)(F)F)cs2)c1`, the half-maximal effective concentration (EC50) worked out at 2.7 µM on Hexokinase-4 [1] and 0.93 µM on Hexokinase-4 [2].
As to `Nc1ccc(Cl)cc1C(=O)Nc1nccs1`, the results for the EC50 at Hexokinase-4 [1] and on Hexokinase-4 [2] were 11 µM and 2.6 µM, respectively.
For the compound `Cc1cnc(NC(=O)c2cc(Sc3nncn3C)ccc2N)s1`, the concentration for a half-maximal effect (EC50) on Hexokinase-4 [1] was determined as 0.33 µM; at Hexokinase-4 [2], 0.11 µM.
Consider `Cn1cnnc1Sc1ccc(N)c(C(=O)Nc2ncns2)c1`, for which the concentration for a half-maximal effect (EC50) came to 0.49 µM on Hexokinase-4 [1] and 0.12 µM on Hexokinase-4 [2].
On to `Cc1csc(NC(=O)c2cc(Oc3ccccc3)ccc2N)n1`, for which the EC50 on Hexokinase-4 [1] came out at 0.7 µM; at Hexokinase-4 [2], 0.13 µM.
Regarding `Cc1csc(NC(=O)c2cc(Oc3ccccc3F)ccc2N)n1`, the 50% effective concentration (EC50) stood at 0.26 µM on Hexokinase-4 [1] and 0.1 µM on Hexokinase-4 [2].
`Cc1csc(NC(=O)c2cc(Oc3ccccc3S(C)(=O)=O)ccc2N)n1`: the results for the EC50 on Hexokinase-4 [1] and on Hexokinase-4 [2] were 0.51 µM and 0.13 µM, respectively.
For `Cn1cnnc1Sc1ccc(N)c(C(=O)Nc2nccs2)c1`, in that order: 0.35 µM and 0.13 µM.
As for `Cc1csc(NC(=O)c2cc(Sc3nccn3C)ccc2N)n1`, the results for the concentration giving a half-maximal response (EC50) on Hexokinase-4 [1] and on Hexokinase-4 [2] were 0.23 µM and 0.1 µM, respectively.
`Cc1csc(NC(=O)c2cc(Cl)ccc2N)n1`: the EC50 on Hexokinase-4 [1] was 6.5 µM; on Hexokinase-4 [2], 1.4 µM.
For `Cn1cnnc1Sc1ccc(N)c(C(=O)Nc2cccnc2)c1`, in that order: greater than 10 µM and greater than 10 µM.
On to `Cc1csc(NC(=O)c2cc(Oc3cccc(F)c3)ccc2N)n1`, for which the EC50 at Hexokinase-4 [1] was 0.6 µM; at Hexokinase-4 [2] it was 0.14 µM.
Turning to `Cc1csc(NC(=O)c2cc(Sc3ncc[nH]3)ccc2N)n1`, the values for the half-maximal effective concentration (EC50) at Hexokinase-4 [1] and at Hexokinase-4 [2] were 1.6 µM and 0.38 µM, respectively.
Turning to `CCOC(=O)c1csc(NC(=O)c2cc(Sc3nncn3C)ccc2N)n1`, the EC50 at Hexokinase-4 [1] stood at 1.1 µM; on Hexokinase-4 [2], 0.42 µM.
For `Cn1cnnc1Sc1ccc(N)c(C(=O)Nc2ccncc2)c1`, the EC50 on Hexokinase-4 [1] and at Hexokinase-4 [2] was greater than 10 µM each time.
For the compound `Nc1ccccc1C(=O)Nc1nccs1`, the EC50 on Hexokinase-4 [1] and at Hexokinase-4 [2] was greater than 30 µM throughout.
In the case of `Cc1csc(NC(=O)c2cc(Sc3nnc[nH]3)ccc2N)n1`, the EC50 amounted to 2.4 µM at Hexokinase-4 [1] and 0.54 µM on Hexokinase-4 [2].
For `CCSc1ccc(N)c(C(=O)Nc2nc(C)cs2)c1`, the half-maximal effective concentration (EC50) on Hexokinase-4 [1] came out at 0.78 µM; at Hexokinase-4 [2], 0.18 µM.
On to `CCOc1ccc(N)c(C(=O)Nc2nc(C)cs2)c1`, for which the half-maximal effective concentration (EC50) worked out at 6.8 µM at Hexokinase-4 [1] and 1.7 µM at Hexokinase-4 [2].
Regarding `COc1ccccc1Oc1ccc(N)c(C(=O)Nc2nc(C)cs2)c1`, the EC50 worked out at 0.41 µM on Hexokinase-4 [1] and 0.12 µM on Hexokinase-4 [2].
On to `Cc1csc(NC(=O)c2ccc(Cl)cc2N)n1`, for which the EC50 at Hexokinase-4 [1] and at Hexokinase-4 [2] was greater than 30 µM each time.
On to `Cc1csc(NC(=O)c2cc(Sc3ccccn3)ccc2N)n1`, for which the 50% effective concentration (EC50) on Hexokinase-4 [1] was determined as 1.2 µM; at Hexokinase-4 [2], 0.22 µM.
For `Cc1nsc(NC(=O)c2cc(Sc3nncn3C)ccc2N)n1`, in that order: 0.64 µM and 0.18 µM.
As for `Cn1cnnc1Sc1ccc(N)c(C(=O)Nc2nc(CO)cs2)c1`, the EC50 was found to be 1.6 µM at Hexokinase-4 [1] and 0.42 µM at Hexokinase-4 [2].
For the compound `Cc1csc(NC(=O)c2cccc(Sc3nncn3C)c2)n1`, the EC50 was 7.3 µM at Hexokinase-4 [1] and 1.5 µM at Hexokinase-4 [2].
As to `Cc1csc(NC(=O)c2cccc(Cl)c2)n1`, the concentration giving a half-maximal response (EC50) on Hexokinase-4 [1] was 17 µM; at Hexokinase-4 [2] it was 6.3 µM.
As for `Cn1cnnc1Sc1ccc(N)c(C(=O)Nc2ccccn2)c1`, the concentration giving a half-maximal response (EC50) at Hexokinase-4 [1] was 1.2 µM; on Hexokinase-4 [2] it was 0.23 µM.
As for `Cc1csc(NC(=O)c2cc(Oc3ccc(F)cc3)ccc2N)n1`, the EC50 on Hexokinase-4 [1] is 1.7 µM; on Hexokinase-4 [2] it was 0.4 µM.
Take `Cc1csc(NC(=O)c2cc(Sc3ccccc3)ccc2N)n1`: the values for the EC50 at Hexokinase-4 [1] and at Hexokinase-4 [2] were 0.92 µM and 0.2 µM, respectively.

Values taken from ChEMBL document CHEMBL1152887, “Identification of novel and potent 2-amino benzamide derivatives as allosteric glucokinase activators” (Bioorg Med Chem Lett, 2009).
